Laboratory results taken from PubChem BioAssay (NCI).
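Each compound was tested at five concentrations against cells in 96-well plates for 48 hours. At the TGI there is no net growth.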

Tests used:
Assay in all cases: NCI-60 cell line screen, 48 h
UACC-62 melanoma = test system: UACC-62 melanoma
OVCAR-3 ovarian = test system: OVCAR-3 ovarian
BT-549 breast = test system: BT-549 breast
MDA-MB-435 = test system: MDA-MB-435
HCC-2998 colon = test system: HCC-2998 colon
IGROV1 ovarian = test system: IGROV1 ovarian
M14 melanoma = test system: M14 melanoma
SK-OV-3 ovarian = test system: SK-OV-3 ovarian
NCI-H522 lung = test system: NCI-H522 lung
RXF 393 renal = test system: RXF 393 renal

| Compound | TGI (UACC-62 melanoma) [µM] | TGI (OVCAR-3 ovarian) [µM] | TGI (BT-549 breast) [µM] | TGI (MDA-MB-435) [µM] | TGI (HCC-2998 colon) [µM] | TGI (IGROV1 ovarian) [µM] | TGI (M14 melanoma) [µM] | TGI (SK-OV-3 ovarian) [µM] | TGI (NCI-H522 lung) [µM] | TGI (RXF 393 renal) [µM] |
| --- | --- | --- | --- | --- | --- | --- | --- | --- | --- | --- |
| Cc1ccc(O)c(-c2cscn2)c1 | > 100 | > 100 | > 100 | > 100 | > 100 | > 100 | > 100 | > 100 | – | – |
| NNC(=O)CSc1nc2ccccc2c(=O)n1N | > 100 | > 100 | > 100 | > 100 | > 100 | > 100 | > 100 | – | > 100 | 95.5 |
| CCOc1ccc(/C=C2/C(=O)N=C(NC(C)=O)N2C)cc1 | > 100 | > 100 | > 100 | > 100 | > 100 | > 100 | > 100 | > 100 | – | > 100 |
| CSc1ncnc2c1ncn2CCC#N | – | > 100 | – | > 100 | – | > 100 | > 100 | > 100 | > 100 | > 100 |
| Nc1[nH]nc2nc3ccc(C(F)(F)F)cc3nc12 | 69.1 | – | > 100 | > 100 | > 100 | 72.2 | > 100 | 52.7 | 38.8 | 57.1 |
| CC(=O)OCC1OC(n2c3c(cc(C#N)c2=S)CCCCC3)C(OC(C)=O)C(OC(C)=O)C1OC(C)=O (stereo not drawn) | > 100 | > 100 | > 100 | > 100 | > 100 | > 100 | > 100 | – | > 100 | > 100 |
| O=C1NC2OC(C(O)CO)C(O)C2O1 (stereo not drawn) | > 100 | > 100 | – | – | > 100 | > 100 | > 100 | > 100 | > 100 | – |
| O=C(CN(c1ccccc1)c1ccccc1)n1nnc2ccccc21 | > 100 | > 100 | – | – | > 100 | > 100 | > 100 | > 100 | 59.1 | > 100 |
| OCc1ccc(C2CC(c3ccco3)=NN2c2ccccc2)o1 (stereo not drawn) | > 100 | > 100 | – | – | – | > 100 | > 100 | – | > 100 | > 100 |
| CC(C(O)Cc1ccccc1)N(C)N=Nc1ccc([N+](=O)[O-])cc1 (stereo not drawn) | 37.6 | 36.3 | 40.4 | 40.9 | 32.2 | 43.4 | 33.1 | 63.9 | – | 23.7 |
| Cc1ccc2c(c1)C(=O)C1(C2)Cc2cccc(C)c2C1=O (stereo not drawn) | > 100 | > 100 | – | > 100 | > 100 | > 100 | > 100 | > 100 | > 100 | > 100 |
| CCCCN=C(c1ccccc1)N1CCOCC1 | > 100 | > 100 | > 100 | > 100 | – | > 100 | > 100 | > 100 | – | > 100 |
| C=C1C(=O)C=C[C@]2(C)CC[C@H]3C(=C)C(=O)O[C@@H]3[C@@H]12 | 4.29 | 11.1 | 9.85 | 3.21 | – | 4.28 | 3.96 | 21.2 | 3.77 | 4.47 |
| COc1cc2c3c(c1OC)C1(C=CC(=O)C=C1)C[C@H]3N(C)CC2 | > 100 | > 100 | – | – | > 100 | > 100 | > 100 | > 100 | > 100 | > 100 |
| CC1CCCC(CC(=O)O)(CC(=O)O)C1 (stereo not drawn) | > 100 | – | > 100 | > 100 | > 100 | > 100 | > 100 | – | > 100 | – |
| COc1c(C(C)C)cc2c3c1OC(=O)[C@@]31CCCC(C)(C)C1CC2 (stereo partly drawn) | > 100 | 83.3 | – | – | > 100 | > 100 | > 100 | 76.1 | 38.7 | 56.3 |
| CN1[C@@H]2C[C@@H](OC(=O)[C@H](CO)c3ccccc3)C[C@H]1[C@@H]1O[C@@H]12 | > 100 | > 100 | > 100 | > 100 | – | > 100 | > 100 | > 100 | > 100 | > 100 |
| C=C([C@@]1(O)C[C@H]2[C@H](CCC2(OC)OC)[C@@H]2c3ccccc3O[C@@H]21)[Si](C)(C)C | > 100 | > 100 | > 100 | > 100 | > 100 | > 100 | > 100 | > 100 | > 100 | – |
| CSc1sc2ccccc2[s+]1 | > 100 | – | – | – | > 100 | > 100 | > 100 | > 100 | > 100 | > 100 |
| O=C1O[C@H](c2ccc3c(c2)OCO3)[C@H]2CO[C@@H](c3ccc4c(c3)OCO4)[C@@H]12 | > 100 | – | > 100 | > 100 | > 100 | > 100 | > 100 | > 100 | > 100 | > 100 |
| Cn1c(COC(=O)Nc2ccccc2)c(COC(=O)Nc2ccccc2)c2ccc3cc(Cl)c(Cl)cc3c21 | 40.7 | 21.6 | 12.6 | 29.1 | 15.8 | 23.5 | 19.6 | > 75 | – | 39.5 |
| C=CCOc1ccc(C2(O)c3ccccc3C3=NCCCN32)cc1 (stereo not drawn) | > 57 | > 100 | > 100 | > 85.6 | 43.3 | > 100 | 35.1 | > 100 | > 100 | – |
| COc1cc(OC)c(C2c3cc4c(cc3OC(N3CCCC3)C2C)OCO4)c(OC)c1 (stereo not drawn) | 69.6 | 20.5 | – | – | 21.9 | 52.8 | 28.6 | – | 48.7 | – |
| O=C1c2ccccc2C2(c3ccc(Cl)cc3)N[C@H]3CCCC[C@@H]3N12 (stereo partly drawn) | > 100 | > 100 | > 100 | > 100 | – | > 100 | – | > 100 | – | > 100 |
| O=C1/C(=C/c2ccc(Cl)cc2)CSc2ccccc21 | 14.6 | 49.1 | 78.6 | 20.7 | – | 66.4 | > 100 | > 100 | – | 36.3 |
